According to patent US10689359B2, “Crystals of quinazoline derivative and preparation method therefor” (Xuanzhu Pharma Co., Ltd., priority 2015, dated 2020):

Key:
[1] = Study on stability of Crystal form I, II and III (influencing factors; character, moisture content, relevant substances by HPLC, XRPD); type: physicochemical
Protocol: The samples were tested for character, relevant substances, moisture content, XRPD pattern, etc. […] The samples were tested for relevant substances, content, character, moisture content, XRPD pattern, etc. During the study, the uncovered experimental samples were kept in cultured dishes in the air. […] During the study, the uncovered experimental samples were kept in cultured dishes in the air. […] With respect to relevant substances, in accordance with High Performance Liquid Chromatography in Appendix V D in Pharmacopoeia of the People's Republic of China (2010), the samples were determined by area normalization method. Instrument: High Performance Liquid Chromatographic Instrument (Agilent 1200/1260 series) Chromatographic column: chromatographic column using octylsilane chemically bonded silica as filler (HC-C8, 4.6×250 mm, 5 μm) Column temperature: 30° C. Detection wavelength: 230 nm Mobile phase: mobile phase consisting of 0.03 mol/L diammonium hydrogen phosphate/0.03 mol/L sodium perchlorate solution-acetonitrile, and reversed-phase gradient elution was employed. Flow rate: 1.0 mL/min Injection volume: 10 μL Method for determining moisture content: the moisture content was determined in accordance with First Method for Determining Moisture Content B (Coulometric Titration) in Appendix VIII M in Pharmacopoeia of the People's Republic of China (2010).

[2] = Evaluation on pharmacokinetics in SD rats, intragastric administration; type: in vivo; conditions: 5 mg/kg
Protocol: An amorphous form of a compound of Formula (I), the preparation method of which could be found in the particular Examples as disclosed in the international patent application (Publication No. WO 2012027960 A1).
Test animal: SD rats, male, weighed 190-250 g, 6 rats for each crystal form, purchased from Beijing Vital River Laboratory Animal Technology Co., Ltd.
Administration route: intragastric administration, at an administration dose of 5 mg/kg, and an administration volume of 10 mL/kg.
Blood collection: whole blood (about 100 μL) was collected from tail vein 10 min, 30 min, 1 h, 2 h, 4 h, 6 h, 8 h, and 24 h after administration, and added to K2EDTA-containing anticoagulation tubes. The whole blood sample was centrifuged for 6 min at 4° C., 8000 rpm in a high speed centrifuge, and plasma was separated. Plasma needed to be prepared within 30 min after blood collection, and stored at −80° C. in a refrigerator.
Plasma sample analysis: the plasma samples were analyzed by protein precipitation: to plasma (20 μL), an internal standard Gefitinib (200 μL, 50 ng/mL acetonitrile solution) was added; the resultant mixture was vortexed at 500 rpm for 5 min, and centrifuged at 4000 rpm for 20 min in a high speed centrifuge; to the supernatant (100 μL), water (100 μL) was added; the resultant mixture was mixed homogeneously under vortexing and analyzed by LC-MS/MS for blood concentration.
Calculation for PK parameters: PK parameters were calculated by using Pharsight Phoenix 6.2 software.

[3] = Comparison of stability between crystal forms and amorphous form, 60° C. uncovered, relevant substances by HPLC; type: physicochemical
Protocol: Instrument: High Performance Liquid Chromatographic Instrument (Agilent 1260 series) Chromatographic column: chromatographic column using octylsilane chemically bonded silica as filler (HC-C8, 4.6×250 mm, 5 μm) Column temperature: 30° C. Detection wavelength: 230 nm Mobile phase: Mobile phase consisting of 0.06 mol/L sodium dihydrogen phosphate/0.06 mol/L sodium perchlorate solution-acetonitrile, and reversed-phase gradient elution was employed. Flow rate: 1.0 mL/min Injection volume: 10 μL

EGFR = EGFR (Homo sapiens, UniProt P00533); conditions: cited from earlier work
Chain of EGFR (P00533 25-1210): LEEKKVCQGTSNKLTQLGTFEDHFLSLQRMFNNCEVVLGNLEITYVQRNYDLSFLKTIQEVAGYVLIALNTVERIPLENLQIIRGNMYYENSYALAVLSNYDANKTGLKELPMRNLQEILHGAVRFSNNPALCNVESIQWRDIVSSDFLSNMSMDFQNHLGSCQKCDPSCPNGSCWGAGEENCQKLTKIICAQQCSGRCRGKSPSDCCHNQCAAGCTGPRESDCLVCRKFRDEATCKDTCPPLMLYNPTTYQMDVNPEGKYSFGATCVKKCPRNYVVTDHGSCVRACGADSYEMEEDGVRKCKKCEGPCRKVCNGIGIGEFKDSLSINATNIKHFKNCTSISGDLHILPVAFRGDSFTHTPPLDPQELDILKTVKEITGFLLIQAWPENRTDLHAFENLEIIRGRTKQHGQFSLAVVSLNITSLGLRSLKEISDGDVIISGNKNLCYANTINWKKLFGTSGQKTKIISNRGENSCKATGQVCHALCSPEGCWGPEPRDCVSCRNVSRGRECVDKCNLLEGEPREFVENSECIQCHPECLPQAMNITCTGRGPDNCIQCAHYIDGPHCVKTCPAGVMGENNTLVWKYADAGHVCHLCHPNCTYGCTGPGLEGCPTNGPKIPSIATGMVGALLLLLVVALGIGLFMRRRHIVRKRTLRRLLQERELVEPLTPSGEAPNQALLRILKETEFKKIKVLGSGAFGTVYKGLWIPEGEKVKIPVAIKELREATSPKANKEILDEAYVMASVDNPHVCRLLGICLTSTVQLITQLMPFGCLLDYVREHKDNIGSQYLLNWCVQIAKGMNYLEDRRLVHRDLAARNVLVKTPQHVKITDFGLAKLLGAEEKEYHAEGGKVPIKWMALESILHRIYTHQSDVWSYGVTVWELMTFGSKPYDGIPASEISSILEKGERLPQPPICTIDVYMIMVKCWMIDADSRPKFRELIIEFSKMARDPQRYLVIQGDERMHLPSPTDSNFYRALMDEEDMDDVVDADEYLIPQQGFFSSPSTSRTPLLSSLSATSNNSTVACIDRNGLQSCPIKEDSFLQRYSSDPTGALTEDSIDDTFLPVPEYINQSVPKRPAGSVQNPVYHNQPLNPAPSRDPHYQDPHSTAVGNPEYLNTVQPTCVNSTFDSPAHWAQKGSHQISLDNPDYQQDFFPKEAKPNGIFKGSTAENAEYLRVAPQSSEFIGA

HER2/4 = conditions: cited from earlier work
[4] = system: erlotinib-resistant H1975 cell line; conditions: cited from earlier work
[5] = 10 days, 40° C./RH75% uncovered

C=CC(=O)Nc1cc2c(Nc3ccc(F)c(Cl)c3)ncnc2cc1OCC1CC2(CCN(C)CC2)C1 [Crystal form III, N-(4-((3-chloro-4-fluorophenyl)amino)-7-((7-methyl-7-azaspiro[3.5]nonan-2-yl)methoxy)quinazolin-6-yl)acrylamide]
Character ([1]; 0 day): light yellow powder
Moisture content ([1]; 0 day): 3.5%
Total relevant substances ([1]; 0 day): 0.66%
Increase of total relevant substances ([1]; 60° C. uncovered, 5 days vs Day 0): 0.28%
Increase of total relevant substances ([1]; 60° C. uncovered, 10 days vs Day 0): 0.44%
Character ([1]; 5 days, 40° C./RH75% covered): light yellow powder
Moisture content ([1]; 5 days, 40° C./RH75% covered): 3.6%
Total relevant substances ([1]; 5 days, 40° C./RH75% covered): 0.57%
Character ([1]; 5 days, 40° C./RH75% uncovered): light yellow powder
Moisture content ([1]; 5 days, 40° C./RH75% uncovered): 3.9%
Total relevant substances ([1]; 5 days, 40° C./RH75% uncovered): 0.63%
Character ([1]; 5 days, 60° C. covered): light yellow powder
Moisture content ([1]; 5 days, 60° C. covered): 3.6%
Total relevant substances ([1]; 5 days, 60° C. covered): 0.60%
Character ([1]; 5 days, 60° C. uncovered): light yellow powder
Moisture content ([1]; 5 days, 60° C. uncovered): 3.5%
Total relevant substances ([1]; 5 days, 60° C. uncovered): 0.94%
Character ([1]; 5 days, RH-75%): light yellow powder
Moisture content ([1]; 5 days, RH-75%): 4.0%
Total relevant substances ([1]; 5 days, RH-75%): 0.62%
Character ([1]; 5 days, RH-92.5%): light yellow powder
Moisture content ([1]; 5 days, RH-92.5%): 4.0%
Total relevant substances ([1]; 5 days, RH-92.5%): 0.58%
Character ([1]; 5 days, visible light): light yellow powder
Moisture content ([1]; 5 days, visible light): 3.7%
Total relevant substances ([1]; 5 days, visible light): 0.68%
Character ([1]; 10 days, 40° C./RH75% covered): light yellow powder
Moisture content ([1]; 10 days, 40° C./RH75% covered): 3.6%
Total relevant substances ([1]; 10 days, 40° C./RH75% covered): 0.59%
Character [1, 5]: light yellow powder
Moisture content [1, 5]: 3.9%
Total relevant substances [1, 5]: 0.62%
Character ([1]; 10 days, 60° C. covered): light yellow powder
Moisture content ([1]; 10 days, 60° C. covered): 3.5%
Total relevant substances ([1]; 10 days, 60° C. covered): 0.64%
Character ([1]; 10 days, 60° C. uncovered): light yellow powder
Moisture content ([1]; 10 days, 60° C. uncovered): 3.4%
Total relevant substances ([1]; 10 days, 60° C. uncovered): 1.1%
Character ([1]; 10 days, RH-75%): light yellow powder
Moisture content ([1]; 10 days, RH-75%): 3.8%
Total relevant substances ([1]; 10 days, RH-75%): 0.56%
Character ([1]; 10 days, RH-92.5%): light yellow powder
Moisture content ([1]; 10 days, RH-92.5%): 4.3%
Total relevant substances ([1]; 10 days, RH-92.5%): 0.60%
Character ([1]; 10 days, UV light): light yellow powder
Moisture content ([1]; 10 days, UV light): 3.8%
Total relevant substances ([1]; 10 days, UV light): 0.70%
Stability of the samples (conclusion) ([1]; influencing factor conditions (high temperature, high moisture, light), 10 days): good stability
Pharmacokinetic properties (conclusion) [2]: good pharmacokinetic properties
AUC0-t ([2]; suspension in water): 1324 ng·h/mL
AUCinf ([2]; suspension in water): 1340 ng·h/mL
Cmax (maximum blood concentration) ([2]; suspension in water): 134 ng/mL
T1/2 (drug elimination half-life) ([2]; suspension in water): 3.35 h
Tmax (time to maximum blood concentration) ([2]; suspension in water): 4 h
Total relevant substances ([3]; 0 day): 0.81%
Change in total relevant substances (conclusion) ([3]; 60° C. uncovered, 5 days and 10 days): little increase in total relevant substances
Total relevant substances ([3]; 60° C. uncovered-5 days): 1.1%
Total relevant substances ([3]; 60° C. uncovered-10 days): 2.0%

C=CC(=O)Nc1cc2c(Nc3ccc(F)c(Cl)c3)ncnc2cc1OCC1CC2(CCN(C)CC2)C1 [Formula (I), N-(4-((3-chloro-4-fluorophenyl)amino)-7-((7-methyl-7-azaspiro[3.5]nonan-2-yl)methoxy)quinazolin-6-yl)acrylamide]
Inhibition of EGFR (EGFR): effectively inhibit
Inhibition of HER2/4 (HER2/4): inhibitory effect
Inhibition of erlotinib-resistant H1975 cell line [4]: significantly inhibitory effect
